Source: patent US8492427B2, “Isoindolones derivatives as MEK kinase inhibitors and methods of use” (Genentech, Inc., priority 2008, dated 2013)

How the values were obtained:
[1] = test system: HCT116 human colorectal carcinoma; test: Cell Proliferation Assay, HCT116; assay type: cell-based; settings: HCT-116, HCT116 cell line, 72 h, CellTiter-Glo
Method: (§1) Compounds are tested in a cell proliferation assay using the following cell lines:
(§2) Both cell lines are maintained in DMEM/F12 (1:1) media (Gibco) supplemented with 10% FCS at 37° C. in a 5% CO2 humidified incubator.
(§3) Cells are seeded in 96-well plates at 2,000 cells/well and after 24 hours they are exposed to different concentrations of compounds in 0.83% DMSO. Cells are grown for a further 72 h, and an equal volume of CellTiter-Glo reagent (Promega) is added to each well. This lyses the cells and generates a luminescent signal proportional to the amount of ATP released (and therefore proportional to the number of cells in the well) that can be detected using a multi-well luminometer.
(§4) The EC50 is defined as the concentration at which a given compound achieves 50% inhibition of control. IC50 values are calculated using the XLfit software package (version 2.0.5).

[2] = test system: A375 human malignant melanoma; test: Cell Proliferation Assay, A375; assay type: cell-based; settings: A-375, A375 cell line, 72 h, CellTiter-Glo
Method: as §1, §2, §3, §4

[3] = test system: phospho-ERK in HCT116 cell line; test: Phospho-ERK Cell-Based Assay, HCT116; settings: Homo sapiens, HCT-116, exposure 2 h or 24 h
Method: Compounds are tested in a cell-based phospho-ERK ELISA using the following cell lines:
as §2
Cells are seeded in 96-well plates at 2,000 cells/well and after 24 h they are exposed to different concentrations of compounds in 0.83% DMSO. Cells are grown for a further 2 h or 24 h, fixed with formaldehyde (2% final) and permeabilised with methanol. Following blocking with TBST-3% BSA, fixed cells are incubated with primary antibody (anti-phospho ERK from rabbit) over-night at 4° C. Cells are incubated with Propidium Iodide (DNA fluorescent dye) and detection of cellular p-ERK is performed using an anti-rabbit secondary antibody conjugated to the fluorescent Alexa Fluor 488 dye (Molecular probes). The fluorescence is analysed using the Acumen Explorer (TTP Labtech), a laser-scanning microplate cytometer, and the Alexa Fluor 488 signal is normalised to the PI signal (proportional to cell number).
The EC50 is defined as the concentration at which a given compound achieves a signal half way between the baseline and the maximum response. EC50 values are calculated using the XLfit software package (version 2.0.5).

[4] = biological target: constitutively activated human mutant MEK1 (Homo sapiens, UniProt Q02750); test: MEK Assay (MEK Activity Assay); assay type: biochemical; settings: 15 nM MEK1, 50 μM ATP, GST-ERK1 substrate, 30 minutes, HTRF; read-out: IC50 in the MEK activity assay of Example 1
Method: Constitutively activated human mutant MEK1 expressed in insect cells is used as source of enzymatic activity at a final concentration in the kinase assay of 15 nM.
The assay is carried out for 30 minutes in the presence of 50 μM ATP using recombinant GST-ERK1 produced in E. Coli as substrate. Phosphorylation of the substrate is detected and quantified using HTRF reagents supplied by Cisbio. These consist of an anti-GST antibody conjugated to allophycocyanin (XL665) and an anti-phospho (Thr202/Tyr204) ERK antibody conjugated to europium-cryptate. These are used at a final concentration of 4 μg/ml and 0.84 μg/ml respectively. The anti-phospho antibody recognises ERK1 dually phosphorylated on Thr202 and Tyr204. When both antibodies are bound to ERK1 (i.e. when the substrate is phosphorylated), energy transfer from the cryptate to the allophycocyanin occurs following excitation at 340 nm, resulting in fluorescence being emitted that is proportional to the amount of phosphorylated substrate produced. Fluorescence is detected using a multiwell fluorimeter.
Compounds are diluted in DMSO prior to addition to assay buffer and the final DMSO concentration in the assay is 1%.
The IC50 is defined as the concentration at which a given compound achieves 50% inhibition of control. IC50 values are calculated using the XLfit software package (version 2.0.5).

Sequence of constitutively activated human mutant MEK1 (Q02750 whole entry S218D/S222D, form open): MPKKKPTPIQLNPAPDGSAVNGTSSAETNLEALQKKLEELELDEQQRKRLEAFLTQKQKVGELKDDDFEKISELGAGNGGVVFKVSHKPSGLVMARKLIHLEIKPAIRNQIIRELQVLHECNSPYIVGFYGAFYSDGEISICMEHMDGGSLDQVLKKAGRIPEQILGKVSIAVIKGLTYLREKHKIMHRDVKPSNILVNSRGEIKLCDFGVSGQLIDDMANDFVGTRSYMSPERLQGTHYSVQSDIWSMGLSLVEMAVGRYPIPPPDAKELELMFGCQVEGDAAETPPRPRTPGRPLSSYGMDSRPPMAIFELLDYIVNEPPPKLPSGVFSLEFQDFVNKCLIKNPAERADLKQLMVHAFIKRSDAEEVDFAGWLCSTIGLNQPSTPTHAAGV

In the case of `O=C1NCc2cc(C(=O)NOCCO)c(Nc3ccc(I)cc3F)cc21` [Example 5, 6-(2-Fluoro-4-iodo-phenylamino)-1-oxo-2,3-dihydro-1H-isoindole-5-carboxylic acid (2-hydroxy-ethoxy)-amide], the EC50 [1] is reported as < 500 nM, the EC50 [2] is reported as < 500 nM and the EC50 [3] is reported as < 500 nM. The IC50 [4] was < 100 nM.
